Experimental data from patent publication EP0081122B1, “Carrier tripeptides with antifungal activity” (Helopharm W. Petrik GmbH & Co.KG., priority 1982, dated 1985).

Assays:
Candida albicans = experiment: Growth inhibition / minimal inhibitory concentration in yeast nitrogen base medium; type: cell-based
Method: Die weiteren Untersuchungen dieser fünf Tripeptide gegenüber Cadida albicans und Candida pseudotropicalis in »yeast nitrogen base« Medium mit einer Zellzahl von 10^4/ml zu Testbeginn führten zu dem Ergebnis, daß diese Tripeptide keinerlei Wachstumshemmung zeigen. Die Tripeptide werden dabei bis zu einer Konzentration von 10 mg/ml Testmedium beurteilt. Bei den Tripeptiden L-Arg-D-Val-L-Phe und L-Arg-D-Ala-L-Phe werden im Gegenteil sogar Wachstumsförderung von Candida albicans festgestellt.
In der beigefügten Tabelle I sind die kleinsten inhibierenden Konzentrationen der beiden beispielsweisen erfindungsgemäßen Tripeptide 1 und 2 denjenigen der freien Antimetaboliten gegenübergestellt anhand des Beispiels candida albicans. Die Untersuchungen wurden in einem yeast nitrogen base Medium mit einem Glukosegehalt von 2% und einem pH-Wert von 7,2 durchgeführt. Die Zellzahl zu Versuchsbeginn beläuft sich auf 10^4/ml. Die Tests werden in Mikrotiterschalen durchgeführt und es wird 24 Stunden bei 30° C inkubiert.

einigen Bakterien = experiment: Antibacterial activity of free amino acid antagonists; type: cell-based; conditions: lost when built into the tripeptides
[1] = dissertation Universität Tübingen 1975; cited from earlier work

Compound | durch Carboxypeptidasen spaltbar (Carboxypeptidasen) | Wirksamkeit gegenüber einigen Bakterien (einigen Bakterien) | further results
CC(=O)N[C@@H](CCCNC(=N)N)C(=O)NC(Cc1ccc(F)cc1)C(=O)N[C@@H](Cc1ccccc1)C(=O)O (mixture of isomers) [Verbindung 3, N 1-Acetyl-L-arginyl-DL-(p-fluorphenylalanyl)-L-phenyialanin] | schwerer spaltbar | – | –
N=C(N)NCCC[C@H](N)C(=O)NC(Cc1ccc(F)cc1)C(=O)N[C@@H](Cc1ccccc1)C(N)=O (mixture of isomers) [Verbindung 4, L-Arginyl-DL-(p-fluorphenylalanyl)-L-phenylalaninamid] | schwerer spaltbar | – | –
NC(Cc1ccc(F)cc1)C(=O)O (racemic) [p-F-DL-Phenylalanin] | – | Wirksamkeit zeigen | Wirksamkeit gegen candida albicans (Candida albicans): nicht wirksam; MIC (Candida albicans; 24 h, all tested Candida albicans isolates, read-out: inhibierende Konzentration): > 256 µg/mL
NC(Cc1cccs1)C(=O)O (racemic) [β-2-DL-Thienylalanin] | – | Wirksamkeit zeigen | –
L-Arginyl-D-allothreonyl-L-phenylalanin | – | – | antifungische Wirksamkeit [1]: antifungische Wirksamkeit
